Data set [1] has as its system K-562 (chronic myelogenous leukemia). The experiment in a line: MTT anti-proliferative assay, K-562. The class given is cell-based. Particulars: Homo sapiens, K562, 48 h, 50% growth inhibition. The method, then:
(§1) Each in vitro experiment was performed at least in triplicate, and the standard deviation of absorbance was less than 10% of the mean. For the in vitro assays, a stock solution (1% DMSO in the appropriate buffer with the tested compound diluted under sonication) was prepared from which several dilutions were made with the appropriate buffer.
(§2) Human cell lines were obtained from the Institute of Cytology, Russian Academy of Sciences. […] Cellular sensitivities to clofarabine and its lipid derivatives were measured with the MTT assay. Cells were plated in triplicate in 96-well plates (10^5 cells/well for suspended cell cultures and 5 × 10^3 cells/well for monolayer cultures); on the same day (suspended cell cultures) or on the following day (monolayer cultures), compounds were added at the appropriate dilutions. Plates were incubated under standard conditions for 48 h. Thereafter, 10 μL of MTT (Sigma) in phosphate-buffered saline (5 mg/mL) was added. The plates were incubated for an additional 4 h, and 150 μL of dimethyl sulfoxide (DMSO) was added to dissolve the formazan crystals. The optical density was read on a HALO MPR-95 Microplate Reader (Dynamica Scientific Ltd., Australia) at 570 nm. The antiproliferative effects were determined as degrees of inhibition of tumor cells (%).

The subject of data set [2] is HL-60 (promyelocytic leukemia). Nature of the data set: MTT anti-proliferative assay, HL-60. The class given is cell-based, human. Conditions: 50% growth inhibition. The procedure: as §1, §2
A general note: Tetrazolium dyes change colour on reduction, which living cells bring about.

Data set [3] has as its system MCF-7 (breast adenocarcinoma). Nature of the data set: MTT anti-proliferative assay, MCF-7. Conditions: Homo sapiens, MCF7, 48 h, 50% growth inhibition. The class given is cell-based. The method, then: as §1, §2
The next data set relates to HeLa (cervix carcinoma). Nature of the data set: MTT anti-proliferative assay, HeLa. The class given is cell-based. Particulars: Homo sapiens, 48 h, 50% growth inhibition. The procedure: as §1, §2
A further data set has as its system A549 (lung carcinoma). Nature of the data set: MTT anti-proliferative assay, A-549. The format is cell-based. Particulars: Homo sapiens, 48 h, 50% growth inhibition. The procedure:
as §1, §2

Data set [4] deals with OKP-GS (carcinoma of the kidney). The experiment in a line: MTT anti-proliferative assay, OKP-GS. Particulars: Homo sapiens, 48 h, 50% growth inhibition. The format is cell-based. The method, then: as §1, §2
For data set [5], the system named is RPMI 1788 (B lymphocyte, human normal cells). The experiment in a line: MTT assay on normal cells RPMI 1788. Particulars: MTT 48 h. The format is cell-based. The method, then: as §1
Human cell lines were obtained from the Institute of Cytology, Russian Academy of Sciences. The cell lines studied were maintained in RPMI 1640 medium (AppliChem, Darmstadt, Germany) supplemented with 20% (HL-60, RPMI 1788) fetal calf serum (HyClone, Cramlington, UK), in DMEM (A 549) and Eagle’s MEM (AppliChem) (MCF7, HeLa) with 10% fetal calf serum (HyClone). Cells were cultivated at 37 °C in a humidified atmosphere of 5% CO2. Cellular sensitivities to clofarabine and its lipid derivatives were measured with the MTT assay. Cells were plated in triplicate in 96-well plates (10^5 cells/well for suspended cell cultures and 5 × 10^3 cells/well for monolayer cultures); on the same day (suspended cell cultures) or on the following day (monolayer cultures), compounds were added at the appropriate dilutions. Plates were incubated under standard conditions for 48 h. Thereafter, 10 μL of MTT (Sigma) in phosphate-buffered saline (5 mg/mL) was added. The plates were incubated for an additional 4 h, and 150 μL of dimethyl sulfoxide (DMSO) was added to dissolve the formazan crystals. The optical density was read on a HALO MPR-95 Microplate Reader (Dynamica Scientific Ltd., Australia) at 570 nm. The antiproliferative effects were determined as degrees of inhibition of tumor cells (%).

The target in the next data set is T1, EGFR (Homo sapiens, UniProt P00533).
T1 construct: purchased Promega
The experiment in a line: ADP-Glo kinase inhibitory assay, EGFR. The format is biochemical. Conditions: read-out: % Inhibition at 10 nM, EGFR. The method, boiled down:
(§3)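 Luminescence read-out of ADP produced (ADP-Glo). Reaction: enzyme + substrate + compound, 1% DMSO final, 23 °C, 60 min; stop/ATP depletion 40 min, detection 30 min, both 23 °C. Duplicates; 100% activity = no-kinase minus kinase signal.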

For a further data set, the target named is T2, HER-2 (Homo sapiens, UniProt P04626).
T2 construct: purchased Promega
The experiment in a line: ADP-Glo kinase inhibitory assay, HER-2. Conditions: read-out: % Inhibition at 10 nM, HER-2. The format is biochemical. The procedure, abridged: as §3
A general note: ADP-Glo turns the ADP formed in a reaction into a luminescent signal.

A further data set deals with T3, HER-4 (Homo sapiens, UniProt Q15303).
T3 construct: purchased Promega
T3 sequence (Q15303 26-1308): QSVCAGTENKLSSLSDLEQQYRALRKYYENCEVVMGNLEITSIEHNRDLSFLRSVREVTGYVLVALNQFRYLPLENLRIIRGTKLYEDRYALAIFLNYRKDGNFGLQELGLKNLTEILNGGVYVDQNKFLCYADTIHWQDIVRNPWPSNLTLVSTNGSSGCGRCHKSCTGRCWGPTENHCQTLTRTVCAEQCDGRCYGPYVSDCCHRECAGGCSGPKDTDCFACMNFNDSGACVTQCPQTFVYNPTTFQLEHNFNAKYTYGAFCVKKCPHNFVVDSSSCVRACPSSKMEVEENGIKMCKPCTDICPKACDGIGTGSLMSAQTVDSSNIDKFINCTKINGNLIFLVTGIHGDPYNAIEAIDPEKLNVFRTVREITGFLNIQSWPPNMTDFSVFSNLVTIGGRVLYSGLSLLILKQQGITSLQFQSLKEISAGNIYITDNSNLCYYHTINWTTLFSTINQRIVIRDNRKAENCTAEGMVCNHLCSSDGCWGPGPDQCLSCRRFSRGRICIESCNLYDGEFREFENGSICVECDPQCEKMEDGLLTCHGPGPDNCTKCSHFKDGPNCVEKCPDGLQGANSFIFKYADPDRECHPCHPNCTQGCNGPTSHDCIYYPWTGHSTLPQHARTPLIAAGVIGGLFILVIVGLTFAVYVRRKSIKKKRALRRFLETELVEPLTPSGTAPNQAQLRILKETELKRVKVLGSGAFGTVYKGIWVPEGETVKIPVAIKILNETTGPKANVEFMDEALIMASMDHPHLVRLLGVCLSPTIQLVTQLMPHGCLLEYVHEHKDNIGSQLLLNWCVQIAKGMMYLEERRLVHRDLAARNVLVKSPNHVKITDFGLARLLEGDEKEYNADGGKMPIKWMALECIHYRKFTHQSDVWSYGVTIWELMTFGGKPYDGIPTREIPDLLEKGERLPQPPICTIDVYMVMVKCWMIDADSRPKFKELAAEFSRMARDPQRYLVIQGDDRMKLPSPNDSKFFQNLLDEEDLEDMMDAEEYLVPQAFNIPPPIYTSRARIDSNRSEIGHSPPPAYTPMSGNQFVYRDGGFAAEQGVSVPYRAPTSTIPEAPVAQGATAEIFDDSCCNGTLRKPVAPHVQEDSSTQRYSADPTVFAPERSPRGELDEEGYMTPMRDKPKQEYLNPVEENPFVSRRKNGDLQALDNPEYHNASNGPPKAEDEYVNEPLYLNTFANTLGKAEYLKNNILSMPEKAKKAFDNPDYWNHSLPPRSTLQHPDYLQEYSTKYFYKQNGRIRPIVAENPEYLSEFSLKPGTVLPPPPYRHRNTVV
The experiment in a line: ADP-Glo kinase inhibitory assay, HER-4. The format is biochemical. Particulars: for inhibitory activity in relation to HER-4, in words: 10 nM, compared with imatinib; for inhibition at 0.01 µM: read-out: % Inhibition at 10 nM, HER-4. The method, boiled down:
as §3

The target in another data set is T4, IGF1R (Homo sapiens, UniProt P08069).
T4 construct: purchased Promega
T4 sequence (P08069 31-1367): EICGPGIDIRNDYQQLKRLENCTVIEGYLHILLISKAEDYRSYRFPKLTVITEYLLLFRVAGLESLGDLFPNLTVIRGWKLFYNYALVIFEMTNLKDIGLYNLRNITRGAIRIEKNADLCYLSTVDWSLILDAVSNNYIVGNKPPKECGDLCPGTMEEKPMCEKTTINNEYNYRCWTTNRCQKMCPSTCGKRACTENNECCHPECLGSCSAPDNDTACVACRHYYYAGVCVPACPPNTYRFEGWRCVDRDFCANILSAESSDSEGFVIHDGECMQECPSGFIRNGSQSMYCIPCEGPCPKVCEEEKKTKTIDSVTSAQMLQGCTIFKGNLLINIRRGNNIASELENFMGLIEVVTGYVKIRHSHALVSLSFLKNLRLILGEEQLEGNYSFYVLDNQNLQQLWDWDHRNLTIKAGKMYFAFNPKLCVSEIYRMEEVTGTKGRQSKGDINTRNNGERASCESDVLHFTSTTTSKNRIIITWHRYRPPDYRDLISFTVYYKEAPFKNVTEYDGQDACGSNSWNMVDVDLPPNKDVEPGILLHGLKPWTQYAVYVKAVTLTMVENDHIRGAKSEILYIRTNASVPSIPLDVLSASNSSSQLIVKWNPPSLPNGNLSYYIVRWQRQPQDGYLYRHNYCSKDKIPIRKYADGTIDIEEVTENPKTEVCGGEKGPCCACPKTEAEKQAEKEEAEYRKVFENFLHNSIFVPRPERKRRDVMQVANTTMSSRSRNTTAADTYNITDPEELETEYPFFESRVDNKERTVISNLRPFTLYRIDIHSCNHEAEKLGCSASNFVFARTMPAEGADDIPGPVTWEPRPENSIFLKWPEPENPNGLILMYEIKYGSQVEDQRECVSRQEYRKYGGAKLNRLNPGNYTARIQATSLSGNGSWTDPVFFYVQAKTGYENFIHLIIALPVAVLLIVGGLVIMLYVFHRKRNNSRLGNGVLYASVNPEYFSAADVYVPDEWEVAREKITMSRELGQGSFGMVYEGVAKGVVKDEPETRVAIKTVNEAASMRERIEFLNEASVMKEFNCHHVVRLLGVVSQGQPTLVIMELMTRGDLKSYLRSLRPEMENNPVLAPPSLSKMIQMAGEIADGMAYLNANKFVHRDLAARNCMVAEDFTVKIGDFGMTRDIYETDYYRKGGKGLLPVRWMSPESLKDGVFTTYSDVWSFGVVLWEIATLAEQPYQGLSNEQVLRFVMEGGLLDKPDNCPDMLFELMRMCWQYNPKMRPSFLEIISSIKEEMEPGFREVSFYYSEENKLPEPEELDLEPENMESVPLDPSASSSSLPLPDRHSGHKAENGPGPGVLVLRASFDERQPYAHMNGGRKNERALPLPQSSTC
Nature of the data set: ADP-Glo kinase inhibitory assay, IGF1R. The format is biochemical. Conditions: read-out: % Inhibition at 10 nM, IGF1R. The method, boiled down: as §3

Another data set has as its target T5, InsR (Homo sapiens, UniProt P06213).
T5 construct: purchased Promega
Nature of the data set: ADP-Glo kinase inhibitory assay, InsR. The class given is biochemical. Particulars: for inhibition at 0.01 µM: read-out: % Inhibition at 10 nM, InsR; for selectivity for the gene insulin receptor, in words: 10 nM, panel of eight receptor tyrosine kinases. The method, boiled down:
as §3

A further data set addresses T6, KDR (VEGFR2) (Homo sapiens, UniProt P35968).
T6 construct: purchased Promega
Nature of the data set: ADP-Glo kinase inhibitory assay, KDR. Conditions: 10 nM. The class given is biochemical.

The target of another data set is T7, PDGFRa (Homo sapiens, UniProt P16234).
T7 construct: purchased Promega
The experiment in a line: ADP-Glo kinase inhibitory assay, PDGFRa. The format is biochemical. Particulars: read-out: % Inhibition at 10 nM, PDGFRa. The procedure, abridged:
as §3

For a further data set, the target named is T8, PDGFRb (Homo sapiens, UniProt P09619).
T8 construct: purchased Promega
T8 sequence (P09619 33-1106): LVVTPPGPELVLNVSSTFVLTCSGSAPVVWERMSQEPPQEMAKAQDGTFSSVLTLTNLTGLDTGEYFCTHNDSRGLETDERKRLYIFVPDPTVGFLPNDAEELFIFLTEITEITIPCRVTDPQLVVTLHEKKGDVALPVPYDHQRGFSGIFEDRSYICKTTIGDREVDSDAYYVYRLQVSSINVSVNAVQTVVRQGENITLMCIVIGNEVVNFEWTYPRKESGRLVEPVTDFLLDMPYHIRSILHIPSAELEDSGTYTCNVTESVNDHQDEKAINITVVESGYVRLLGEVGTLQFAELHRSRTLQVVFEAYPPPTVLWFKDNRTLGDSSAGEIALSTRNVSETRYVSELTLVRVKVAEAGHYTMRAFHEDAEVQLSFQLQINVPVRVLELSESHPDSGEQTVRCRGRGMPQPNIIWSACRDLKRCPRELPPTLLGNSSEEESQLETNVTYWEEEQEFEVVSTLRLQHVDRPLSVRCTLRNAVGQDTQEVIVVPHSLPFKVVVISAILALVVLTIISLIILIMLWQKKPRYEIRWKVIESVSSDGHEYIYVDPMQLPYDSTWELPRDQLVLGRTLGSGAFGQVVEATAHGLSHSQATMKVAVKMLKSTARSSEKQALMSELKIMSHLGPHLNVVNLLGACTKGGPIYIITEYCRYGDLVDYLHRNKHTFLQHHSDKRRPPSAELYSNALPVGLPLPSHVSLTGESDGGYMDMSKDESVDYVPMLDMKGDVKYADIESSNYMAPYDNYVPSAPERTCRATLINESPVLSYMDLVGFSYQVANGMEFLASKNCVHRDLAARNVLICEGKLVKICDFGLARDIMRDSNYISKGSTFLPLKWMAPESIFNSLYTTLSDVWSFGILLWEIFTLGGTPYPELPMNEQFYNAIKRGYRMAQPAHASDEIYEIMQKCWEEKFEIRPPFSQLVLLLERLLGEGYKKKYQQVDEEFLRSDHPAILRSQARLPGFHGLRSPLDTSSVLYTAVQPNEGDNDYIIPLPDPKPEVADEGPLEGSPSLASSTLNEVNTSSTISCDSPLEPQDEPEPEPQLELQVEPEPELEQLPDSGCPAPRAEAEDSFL
The experiment in a line: ADP-Glo kinase inhibitory assay, PDGFRb. The class given is biochemical. Conditions: read-out: % Inhibition at 10 nM, PDGFRb. The procedure, abridged:
as §3

The results in this text go back to publication PMC6804006, “Synthesis, Biological Activities and Docking Studies of Novel 4-(Arylaminomethyl)benzamide Derivatives as Potential Tyrosine Kinase Inhibitors” (Molecules, 2019).

The structures appear in SMILES notation.

T6 sequence (P35968 20-1356): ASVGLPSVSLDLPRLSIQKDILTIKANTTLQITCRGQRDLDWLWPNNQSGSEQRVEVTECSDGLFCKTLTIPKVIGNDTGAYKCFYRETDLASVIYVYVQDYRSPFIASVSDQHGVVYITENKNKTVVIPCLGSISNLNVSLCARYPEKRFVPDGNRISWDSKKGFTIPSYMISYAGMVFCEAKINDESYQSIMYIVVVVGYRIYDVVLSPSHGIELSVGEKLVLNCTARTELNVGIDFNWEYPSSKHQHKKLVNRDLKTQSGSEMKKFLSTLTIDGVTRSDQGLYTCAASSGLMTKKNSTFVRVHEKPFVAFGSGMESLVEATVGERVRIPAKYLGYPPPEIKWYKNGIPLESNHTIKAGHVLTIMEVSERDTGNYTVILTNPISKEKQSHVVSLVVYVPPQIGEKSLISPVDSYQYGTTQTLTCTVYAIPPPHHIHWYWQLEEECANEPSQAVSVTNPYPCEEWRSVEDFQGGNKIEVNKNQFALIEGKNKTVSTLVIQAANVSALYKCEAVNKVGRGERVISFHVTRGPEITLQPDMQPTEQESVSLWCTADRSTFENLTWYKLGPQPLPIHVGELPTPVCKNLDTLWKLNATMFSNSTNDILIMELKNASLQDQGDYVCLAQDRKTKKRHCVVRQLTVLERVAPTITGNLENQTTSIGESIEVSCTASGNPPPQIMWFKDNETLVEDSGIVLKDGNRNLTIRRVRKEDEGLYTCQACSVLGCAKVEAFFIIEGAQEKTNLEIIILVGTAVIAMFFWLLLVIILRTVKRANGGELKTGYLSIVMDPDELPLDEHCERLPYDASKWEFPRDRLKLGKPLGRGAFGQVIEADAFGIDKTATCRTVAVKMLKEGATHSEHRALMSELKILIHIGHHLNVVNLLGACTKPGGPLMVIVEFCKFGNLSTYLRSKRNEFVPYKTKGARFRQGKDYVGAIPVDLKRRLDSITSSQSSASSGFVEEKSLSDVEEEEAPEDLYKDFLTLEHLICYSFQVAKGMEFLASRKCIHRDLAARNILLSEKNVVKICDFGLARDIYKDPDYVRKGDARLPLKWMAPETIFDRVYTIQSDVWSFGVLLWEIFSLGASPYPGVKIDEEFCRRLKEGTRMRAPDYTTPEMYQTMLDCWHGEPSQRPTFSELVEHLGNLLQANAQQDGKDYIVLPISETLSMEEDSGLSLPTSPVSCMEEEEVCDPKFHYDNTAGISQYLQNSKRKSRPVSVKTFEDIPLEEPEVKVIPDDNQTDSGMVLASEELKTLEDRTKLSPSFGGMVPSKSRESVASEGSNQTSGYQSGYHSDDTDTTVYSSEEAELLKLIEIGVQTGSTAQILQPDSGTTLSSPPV

By IC50 is commonly meant the concentration at which inhibition is half-maximal. High values mean a need for much substance, low ones inhibition by little substance. The inhibition is the change of the read-out against control, counted positive when it falls. The term melting point denotes the temperature, or range, at which the solid turns liquid. On to `Cc1cn(-c2cc(NCc3ccc(C(=O)Nc4cccc(C(F)(F)F)c4)cc3)cc(C(F)(F)F)c2)cn1` [Compound 13, 4-({[3-(4-Methyl-1H-imidazol-1-yl)-5-(trifluoromethyl)phenyl]amino}methyl)-N-[3-(trifluoromethyl)phenyl]benzamide], for which the melting point was in the range of 129 to 131 °C. The same compound gave an IC50 in data set [1] of 5.6 µM. The IC50 in [2] (Homo sapiens, HL-60, 48 h) stood at 46 µM. In data set [3], this compound yielded a concentration for half-maximal inhibition (IC50) of 69 µM. For the same compound, half-maximal inhibition with HeLa (cervix carcinoma) (IC50) required 57.5 µM. The compound also had an IC50 in the data set on A549 (lung carcinoma) of 55 µM. The IC50 in data set [4] amounted to 52 µM. In [5], 100 µM produced 9.36% inhibition. Moreover, the inhibition at 0.01 µM at EGFR stood at 92%. At HER-2, the inhibition at 0.01 µM came out at 34%. Besides, at HER-4, the “inhibitory activity in relation to HER-4, in words” value is “comparable to imatinib” and the inhibition at 0.01 µM was found to be 54%. Moreover, the inhibition at 0.01 µM at IGF1R is 0%. Moreover, the inhibition at 0.01 µM at InsR came out at 0%. This compound also gave an inhibition at 0.01 µM on KDR (VEGFR2) of 20%. Also, on PDGFRa, the inhibition at 0.01 µM is 59%. The inhibition at 0.01 µM on PDGFRb was 8%.

Compound `COc1ccc(C(=O)N2CCN(Cc3ccc(C(=O)Nc4cc(-n5cnc(C)c5)cc(C(F)(F)F)c4)cc3)CC2)cc1` [Compound 28i, 4-{[4-(4-Methoxybenzoyl)piperazin-1-yl]methyl}-N-[3-(4-methyl-1H-imidazol-1-yl)-5-(trifluoromethyl)phenyl]benzamide] yielded a melting point of 98 to 102 °C. Further, the IC50 in data set [1] was determined as 30.7 µM. This compound also registered an IC50 in [2] (Homo sapiens, HL-60, 48 h) of 38 µM. For the same compound, the half-maximal inhibitory concentration (IC50) in data set [3] is 63 µM. This compound also displayed an IC50 in the data set with HeLa (cervix carcinoma) of 11.5 µM. This compound had an IC50 in the data set with A549 (lung carcinoma) greater than 100 µM. This compound registered a half-maximal inhibitory concentration (IC50) in data set [4] of 78 µM. Besides, in [5], the inhibition at 100 µM worked out at 6.32%. Also, at EGFR, the inhibition at 0.01 µM stood at 0%. Moreover, the inhibition at 0.01 µM at HER-2 was 0%. On HER-4, the inhibition at 0.01 µM came out at 0%. On IGF1R, the inhibition at 0.01 µM stood at 3%. For the same compound, on InsR, the “selectivity for the gene insulin receptor, in words” value is recorded as “high selectivity” and the inhibition at 0.01 µM was found to be 52%. Further, the inhibition at 0.01 µM on KDR (VEGFR2) was found to be 0%. In addition, the inhibition at 0.01 µM on PDGFRa came to 0%. Further, the inhibition at 0.01 µM at PDGFRb is 0%.

The compound `Cc1cn(-c2cc(NCc3ccc(C(=O)Nc4cc([N+](=O)[O-])ccc4C)cc3)cc(C(F)(F)F)c2)cn1` [Compound 15, 4-({[3-(4-Methyl-1H-imidazol-1-yl)-5-(trifluoromethyl)phenyl]amino}methyl)-N-{[(2-methyl-5-nitrophenyl) benzoate] came in with a melting point of 205 to 208 °C. In data set [1], this compound displayed an IC50 of 31 µM. The IC50 in data set [2] (48 h) amounted to 5.8 µM. In data set [2] (Homo sapiens, HL-60, 48 h), the IC50 stood at 5.6 µM. For the same compound, the IC50 in [3] was greater than 100 µM. The IC50 in the data set on HeLa (cervix carcinoma) was 78.5 µM. Further, it took 73 µM to reach half-maximal inhibition in the data set on A549 (lung carcinoma) (IC50). Further, the IC50 in data set [4] is greater than 100 µM. 100 µM produced 15.9% inhibition in data set [5]. In addition, on EGFR, the inhibition at 0.01 µM came to 0%. The inhibition at 0.01 µM at HER-2 worked out at 0%. Moreover, the inhibition at 0.01 µM on HER-4 came out at 0%. The inhibition at 0.01 µM on IGF1R worked out at 0%. Besides, on InsR, the “selectivity for the gene insulin receptor, in words” value is recorded as “high selectivity” and the inhibition at 0.01 µM worked out at 43%. On KDR (VEGFR2), this compound showed an inhibition at 0.01 µM of 0%. In addition, the inhibition at 0.01 µM on PDGFRa came out at 0%. Besides, the inhibition at 0.01 µM on PDGFRb was 0%.

`Cc1cn(-c2cc(NC(=O)c3ccc(CNc4cccc(C(F)(F)F)c4)cc3)cc(C(F)(F)F)c2)cn1` [Compound 11, N-(3-(4-methyl-1H-imidazol-1-yl)-5-(trifluoromethyl)phenyl)-4-(((3-(trifluoromethyl)phenyl)amino)methyl)benzamide] yielded a melting point of 83 to 85 °C. The compound further came in with an IC50 in data set [1] of 53 µM. Also, half-maximal inhibition in data set [2] (Homo sapiens, HL-60, 48 h) (IC50) was put at 51 µM. Also, the IC50 in [3] worked out at 57 µM. The same compound yielded an IC50 in the data set on HeLa (cervix carcinoma) of 54 µM. In the data set with A549 (lung carcinoma), this compound showed an IC50 of 61 µM. The IC50 in data set [4] amounted to 54.3 µM. Testing at 100 µM in [5] gave an inhibition of 15.5%. On EGFR, the inhibition at 0.01 µM was determined as 91%. Moreover, the inhibition at 0.01 µM on HER-2 came out at 0%. Besides, on HER-4, the “inhibitory activity in relation to HER-4, in words” value is on record as “comparable to imatinib” and the inhibition at 0.01 µM turned out to be 49%. Further, the inhibition at 0.01 µM at IGF1R was 0%. On InsR, the inhibition at 0.01 µM was 0%. This compound showed an inhibition at 0.01 µM against KDR (VEGFR2) of 16%. Further, the inhibition at 0.01 µM on PDGFRa amounted to 55%. Moreover, the inhibition at 0.01 µM on PDGFRb was found to be 0%.
